Values joined by “and” are separate entries in the source; they are usually repeats but may differ in a detail not shown here. Identical values can stand only once.
Legend:
Mus musculus [1] = experiment: Central anticholinergic activity against physostigmine-induced lethality in Carworth CF1 mouse assessed as animal death at 7.5 mg/kg, po treated 5 hrs before 1.6 mg/kg, sc physostigmine treatment and 2 mg/kg, ip atropine methyl nitrate treated 0.5 hrs before induction (reference value: 0%); assay type: functional
Saimiri [2] = experiment: Antipsychotic activity in squirrel monkey assessed as inhibition of conditioned avoidance response measured as maximum number of shocks possible per 30 mins interval at 1 mg/kg, po after 240 to 270 mins dosing; assay type: functional
Saimiri [3] = experiment: (§1) Antipsychotic activity in squirrel monkey assessed as inhibition of conditioned avoidance response measured as maximum number of shocks possible per 30 mins interval at 1 mg/kg, po 10 days later animal received test compound and again saline measured after 0 to 0.5 hrs of dosing; assay type: functional
Saimiri [4] = experiment: as §1, with “po 6” for “po 10”, “compound followed by 0.75 mg/kg, im benztropine 15 mins later” for “compound and again saline”, “after 3.5” for “after 0”, “to 4” for “to 0.5”; assay type: functional
Saimiri [5] = experiment: as §1, with “po 6” for “po 10”, “compound followed by 0.75 mg/kg, im benztropine 15 mins later” for “compound and again saline”, “after 2” for “after 0”, “to 2.5” for “to 0.5”; assay type: functional
Saimiri [6] = experiment: as §1, with “po 6” for “po 10”, “compound followed by 0.75 mg/kg, im benztropine 15 mins later” for “compound and again saline”, “after 4” for “after 0”, “to 4.5” for “to 0.5”; assay type: functional
Saimiri [7] = experiment: Antipsychotic activity in squirrel monkey assessed as inhibition of conditioned avoidance response measured as maximum number of shocks possible per 30 mins interval at 0.50 mg/kg, po after 120 to 150 mins dosing; assay type: functional; conditions: dose 0.5 mg/kg
Saimiri [8] = experiment: Antipsychotic activity in squirrel monkey assessed as inhibition of conditioned avoidance response measured as maximum number of shocks possible per 30 mins interval at 0.25 mg/kg, po after 30 to 60 mins dosing; assay type: functional
Saimiri [9] = experiment: (§2) Antipsychotic activity in squirrel monkey assessed as inhibition of conditioned avoidance response measured as maximum number of shocks possible per 30 mins interval at 1 mg/kg, po 10 days later animal received test compound and again saline measured after 1.5 to 2 hrs of dosing; assay type: functional
Saimiri [10] = experiment: (§3) Antipsychotic activity in squirrel monkey assessed as inhibition of conditioned avoidance response measured as maximum number of shocks possible per 30 mins interval at 1 mg/kg, po 10 days later animal received test compound and again saline measured after 3.5 to 4 hrs of dosing; assay type: functional
Saimiri [11] = experiment: Antipsychotic activity in squirrel monkey assessed as inhibition of conditioned avoidance response measured as maximum number of shocks possible per 30 mins interval at 1 mg/kg, po after 180 to 210 mins dosing; assay type: functional
Mus musculus [12] = experiment: Central anticholinergic activity against physostigmine-induced lethality in Carworth CF1 mouse assessed as animal death at 15 mg/kg, po treated 5 hrs before 1.6 mg/kg, sc physostigmine treatment and 2 mg/kg, ip atropine methyl nitrate treated 0.5 hrs before induction (reference value: 0%); assay type: functional
Saimiri [13] = experiment: Antipsychotic activity in squirrel monkey assessed as inhibition of conditioned avoidance response measured as maximum number of shocks possible per 30 mins interval at 0.50 mg/kg, po after 150 to 180 mins dosing; assay type: functional; conditions: dose 0.5 mg/kg
Saimiri [14] = experiment: as §2, with “6” for “10”, “followed by 0.75 mg/kg, im benztropine 15 mins later” for “and again saline”, “after 1 to” for “after”, “1.5” for “1.5 to 2”; assay type: functional
Saimiri [15] = experiment: Antipsychotic activity in squirrel monkey assessed as inhibition of conditioned avoidance response measured as maximum number of shocks possible per 30 mins interval at 0.25 mg/kg, po after 60 to 90 mins dosing; assay type: functional
Saimiri [16] = experiment: Antipsychotic activity in squirrel monkey assessed as inhibition of conditioned avoidance response measured as maximum number of shocks possible per 30 mins interval at 1 mg/kg, po 10 days later animal received test compound and again saline measured after 4 to 4.5 hrs of dosing; assay type: functional
Saimiri [17] = experiment: Antipsychotic activity in squirrel monkey assessed as inhibition of conditioned avoidance response measured as maximum number of shocks possible per 30 mins interval at 1 mg/kg, po after 210 to 240 mins dosing; assay type: functional
Saimiri [18] = experiment: Antipsychotic activity in squirrel monkey assessed as inhibition of conditioned avoidance response measured as maximum number of shocks possible per 30 mins interval at 1 mg/kg, po 10 days later animal received test compound and again saline measured after 2 to 2.5 hrs of dosing; assay type: functional
Mus musculus [19] = experiment: Peripheral anticholinergic activity in po dosed Carworth CF1 mouse assessed as dose required to produce pupil dilation to 1.5 micrometer units in 50% mouse after 2 hrs; assay type: ADME, organism-based; conditions: in vivo
Saimiri [20] = experiment: (§4) Antipsychotic activity in squirrel monkey assessed as inhibition of conditioned avoidance response measured as maximum number of shocks possible per 30 mins interval at 1 mg/kg, po 10 days later animal received test compound and again saline measured after 0.5 to 1 hrs of dosing; assay type: functional
Saimiri [21] = experiment: Antipsychotic activity in squirrel monkey assessed as inhibition of conditioned avoidance response measured as maximum number of shocks possible per 30 mins interval at 0.50 mg/kg, po after 90 to 120 mins dosing; assay type: functional; conditions: dose 0.5 mg/kg
Saimiri [22] = experiment: as §4, with “6” for “10”, “followed by 0.75 mg/kg, im benztropine 15 mins later” for “and again saline”; assay type: functional
Saimiri [23] = experiment: as §3, with “6” for “10”, “followed by 0.75 mg/kg, im benztropine 15 mins later” for “and again saline”, “after 3 to” for “after”, “3.5” for “3.5 to 4”; assay type: functional
Saimiri [24] = experiment: Antipsychotic activity in squirrel monkey assessed as inhibition of conditioned avoidance response measured as maximum number of shocks possible per 30 mins interval at 1 mg/kg, po 10 days later animal received test compound and again saline measured after 1 to 1.5 hrs of dosing; assay type: functional
Saimiri [25] = experiment: as §2, with “6” for “10”, “followed by 0.75 mg/kg, im benztropine 15 mins later” for “and again saline”; assay type: functional
Mus musculus [26] = experiment: Central anticholinergic activity against physostigmine-induced lethality in Carworth CF1 mouse assessed as animal death at 30 mg/kg, po treated 5 hrs before 1.6 mg/kg, sc physostigmine treatment and 2 mg/kg, ip atropine methyl nitrate treated 0.5 hrs before induction (reference value: 0%); assay type: functional
Saimiri [27] = experiment: Antipsychotic activity in squirrel monkey assessed as inhibition of conditioned avoidance response measured as maximum number of shocks possible per 30 mins interval at 1 mg/kg, po 10 days later animal received test compound and again saline measured after 3 to 3.5 hrs of dosing; assay type: functional
Saimiri [28] = experiment: (§5) Antipsychotic activity in squirrel monkey assessed as inhibition of conditioned avoidance response measured as maximum number of shocks possible per 30 mins interval at 1 mg/kg, po 10 days later animal received test compound and again saline measured after 2.5 to 3 hrs of dosing; assay type: functional
Mus musculus [29] = experiment: Peripheral anticholinergic activity in po dosed Carworth CF1 mouse assessed as dose required to produce pupil dilation to 1.5 micrometer units in 50% mouse after 5 hrs; assay type: ADME, organism-based; conditions: in vivo
Saimiri [30] = experiment: as §1, with “6” for “10”, “followed by 0.75 mg/kg, im benztropine 15 mins later” for “and again saline”; assay type: functional
Saimiri [31] = experiment: as §5, with “6” for “10”, “followed by 0.75 mg/kg, im benztropine 15 mins later” for “and again saline”; assay type: functional
Saimiri [32] = experiment: Antipsychotic activity in squirrel monkey assessed as inhibition of conditioned avoidance response measured as maximum number of shocks possible per 30 mins interval at 0.25 mg/kg, po after 0 to 30 mins dosing; assay type: functional
Mus musculus [33] = experiment: Central anticholinergic activity against physostigmine-induced lethality in Carworth CF1 mouse assessed as animal death at 3.75 mg/kg, po treated 5 hrs before 1.6 mg/kg, sc physostigmine treatment and 2 mg/kg, ip atropine methyl nitrate treated 0.5 hrs before induction (reference value: 0%); assay type: functional
Saimiri [34] = experiment: Antipsychotic activity in squirrel monkey assessed as inhibition of conditioned avoidance response measured as maximum number of shocks possible per 30 mins interval at 1 mg/kg, po administered followed by saline 15 mins later measured after 1.5 to 2 hrs of dosing; assay type: functional
Saimiri [35] = experiment: Antipsychotic activity in squirrel monkey assessed as inhibition of conditioned avoidance response measured as maximum number of shocks possible per 30 mins interval at 1 mg/kg, po administered followed by saline 15 mins later measured after 4 to 4.5 hrs of dosing; assay type: functional
Saimiri [36] = experiment: Antipsychotic activity in squirrel monkey assessed as inhibition of conditioned avoidance response measured as maximum number of shocks possible per 30 mins interval at 1 mg/kg, po administered followed by saline 15 mins later measured after 0.5 to 1 hrs of dosing; assay type: functional
Saimiri [37] = experiment: Antipsychotic activity in squirrel monkey assessed as inhibition of conditioned avoidance response measured as maximum number of shocks possible per 30 mins interval at 1 mg/kg, po administered followed by saline 15 mins later measured after 3 to 3.5 hrs of dosing; assay type: functional
Saimiri [38] = experiment: Antipsychotic activity in squirrel monkey assessed as inhibition of conditioned avoidance response measured as maximum number of shocks possible per 30 mins interval at 1 mg/kg, po administered followed by saline 15 mins later measured after 2.5 to 3 hrs of dosing; assay type: functional
Saimiri [39] = experiment: Antipsychotic activity in squirrel monkey assessed as inhibition of conditioned avoidance response measured as maximum number of shocks possible per 30 mins interval at 1 mg/kg, po administered followed by saline 15 mins later measured after 1 to 1.5 hrs of dosing; assay type: functional
Saimiri [40] = experiment: Antipsychotic activity in po dosed squirrel monkey assessed as inhibition of conditioned avoidance response measured as maximum number of shocks; assay type: functional
Saimiri [41] = experiment: Antipsychotic activity in squirrel monkey assessed as inhibition of conditioned avoidance response measured as maximum number of shocks possible per 30 mins interval at 1 mg/kg, po administered followed by saline 15 mins later measured after 3.5 to 4 hrs of dosing; assay type: functional
Saimiri [42] = experiment: Antipsychotic activity in squirrel monkey assessed as inhibition of conditioned avoidance response measured as maximum number of shocks possible per 30 mins interval at 1 mg/kg, po administered followed by saline 15 mins later measured after 0 to 0.5 hrs of dosing; assay type: functional
Saimiri [43] = experiment: Antipsychotic activity in squirrel monkey assessed as inhibition of conditioned avoidance response measured as maximum number of shocks possible per 30 mins interval at 1 mg/kg, po administered followed by saline 15 mins later measured after 2 to 2.5 hrs of dosing; assay type: functional
Rattus norvegicus = experiment: Blockade of po dosed apomorphine-induced stereotyped behavior in Sprague-Dawley rat assessed as continuous sniffing, licking, gnawing, or biting; assay type: functional
[44] = Saimiri, in Primates, po, read-out: ED50

`FC(F)(F)Sc1ccc2c(c1)C(=C1CCN(CC3CC3)CC1)c1ccccc1C=C2` (single isomer, unassigned; atropisomer) was tested, and the Activity (Mus musculus [1]) was 95% and 80%, the “%max” value (Saimiri [2]) was 100% and the “%max” value (Saimiri [3]) was 0%. For the same molecule, the “%max” value (Saimiri [4]) was 3%, the “%max” value (Saimiri [5]) was 8.7% and the “%max” value (Saimiri [6]) was 3.7%. The “%max” value (Saimiri [7]) was 39.4%, the “%max” value (Saimiri [8]) was 0.34% and the “%max” value (Saimiri [9]) was 52.7%. The “%max” value (Saimiri [10]) was 73%, the “%max” value (Saimiri [11]) was 100% and the Activity (Mus musculus [12]) was 100% and 85%. The “%max” value (Saimiri [13]) was 97.4%, the “%max” value (Saimiri [14]) was 5.7% and the “%max” value (Saimiri [15]) was 0.68%. For the same molecule, the “%max” value (Saimiri [16]) was 64.3%, the “%max” value (Saimiri [17]) was 100% and the “%max” value (Saimiri [18]) was 69.3%. For the same molecule, the ED (Mus musculus [19]) was over 120 mg/kg, the “%max” value (Saimiri [20]) was 1.7% and the “%max” value (Saimiri [21]) was 17.4%. The “%max” value (Saimiri [22]) was 7.6%, the “%max” value (Saimiri [23]) was 4% and the “%max” value (Saimiri [24]) was 42%. The “%max” value (Saimiri [25]) was 5.3%, the Activity (Mus musculus [26]) was 85% and 63% and the “%max” value (Saimiri [27]) was 70.3%. The “%max” value (Saimiri [28]) was 42.7%, the ED (Mus musculus [29]) was over 120 mg/kg and the “%max” value (Saimiri [30]) was 2%. The “%max” value (Saimiri [31]) was 4.3%, the “%max” value (Saimiri [32]) was 0.34% and the Activity (Mus musculus [33]) was 100%.
`FC(F)(F)Sc1ccc2c(c1)C(=C1CCN(CC3CC3)CC1)c1ccccc1C=C2.O=P(O)(O)O` was tested, and the “%max” value (Saimiri [34]) was 62%, the “%max” value (Saimiri [35]) was 82% and the “%max” value (Saimiri [36]) was 9.6%. For the same molecule, the “%max” value (Saimiri [37]) was 66.7%, the “%max” value (Saimiri [38]) was 69% and the “%max” value (Saimiri [39]) was 61.3%. The ED50 (Saimiri [40]) was 0.99 mg/kg, the ED50 (Saimiri [40]; [44]) was 0.51 mg/kg and the “%max” value (Saimiri [41]) was 90%. The “%max” value (Saimiri [42]) was 0% and the “%max” value (Saimiri [43]) was 65%.
With `O=C(CCCN1CCC(O)(c2ccc(Cl)cc2)CC1)c1ccc(F)cc1` [HALOPERIDOL] the ED50 (Saimiri [40]; [44]) was 0.29 mg/kg and the ED50 (Rattus norvegicus) was 0.32 mg/kg.

From ChEMBL document CHEMBL3244029, “Synthesis and stereospecific antipsychotic activity of (-)-1-cyclopropylmethyl-4-(3-trifluoromethylthio-5H-dibenzo[a,d]cyclohepten-5-ylidene)piperidine” (J Med Chem, 1977)
